In US10512624B2, “Long-chain amphipathic dicarboxylic acids for treatment of diabetes type-1” (Syndromex Ltd., priority 2016, dated 2019):
Like-named read-outs stand apart in the source and are kept apart here.

How the values were obtained:
hepatic gluconeogenesis = experiment: Suppression of hepatic gluconeogenesis in STZ diabetic rats (RT-PCR, Western blot, cAMP kit); assay type: in vivo, rat
Experimental: (§1) Administering a combination of Medica16αα and insulin was performed by treating STZ diabetic rats (FBG >300 mg/dl) with oral MEDICA16αα(15 mg/kg b.i.d) for five consecutive days, then MEDICA16αα-responsive rats were further treated with MEDICA16αα(15 mg/kg b.i.d) for 10 additional consecutive days (“STZ/MEDICA Res”), and MEDICA16αα non-responsive rats (FBG >250 mg/dl) were further treated for 10 additional consecutive days with either insulin Neutral Protamine Hagedorn (NPH) (3 u/kg b.i.d subcutaneously) (“STZ/NPH”), or with insulin NPH (3 u/kg b.i.d subcutaneously in combination with oral MEDICA16αα(15 mg/kg b.i.d) (“STZ/MEDICA NPH”).
Sampled frozen tissue was homogenized (Polytron) in lysis buffer (50 mM Tris HCl, pH 8.0, 1% Triton X-100, 1 mM EGTA, 1 mM EDTA, 150 mM NaCl, 5 mM NaPPi, 50 mM NaF, 1 mM PMSF, 1 mM Na Vanadate, 40 nM bpVfan and protease inhibitor cocktail (Sigma)), and centrifuged for 15 min at 12,500 rpm.
(§2) Protein lysates were prepared in sodium dodecyl sulfate (SDS) sample buffer (62 mM Tris (pH 6.8), 2.3% SDS, […] mercaptoethanol, 10% glycerol), and were subjected to SDS-PAGE, electro-transferred onto cellulose nitrate membranes (Schleicher & Schuell) and probed with the indicated first antibody, followed by HRP-labeled second antibody. Protein concentration was determined by BCA (Thermo Scientific). Bands were detected by ECL, and the intensity of individual bands was determined by densitometry using ImageJ 1.48 v software.
Sampled frozen tissue was homogenized (Polytron) in lysis buffer (50 mM Hepes (pH 7.4), 150 mM NaCl, 10% Glycerol, 1.5 mM MgCl2, 1 mM EGTA, 1% Triton, 50 mM β-glycerolphosphate, 25 mM NaF, 1 mM Na-vanadate, 40 nM bpVphen, protease inhibitor mix (Sigma) and 17.5 mg/ml octyl beta-D-glucopyranoside (Sigma)). Lysates were kept on ice for 30 min and centrifuged at 12000 rpm for 15 min. Lysates ([…]) were incubated for 4 h with protein A/G beads (Santa Cruz Biotechnology) pre-loaded with the indicated antibody. The immune-precipitate was rinsed 3 times with washing buffer (20 mM Hepes (pH 7.4), 150 mM NaCl, 0.1% Tx-100, 10% glycerol), re-suspended in SDS sample buffer, boiled for 8 min, and analyzed by SDS-PAGE.
Total RNA was prepared using the TRI reagent (Sigma Aldrich). First-strand cDNA used as template was synthesized by reverse transcription using oligo(dT) as primer and the Reverse-iTMAX First Strand Kit (ABgene, Epson). Glucose-6-phosphatase (G6Pase) and phosphoenolpyruvate carboxykinase (PEPCK) transcripts normalized by tubulin were quantified by real-time PCR (Rotor Gene RG-3000A) using SYBER green MasterMix (Absolute Syber Green ROX Mix, ABgene) and the following primers: […]
Pancreas and plasma insulin and glucagon content were determined by insulin (Millipore, Cat #RI-13K) and glucagon (Millipore, Cat # GL-32K) radioimmunoassay (RIA) kits. cAMP levels were measured by cAMP kit (Arbor Assays, DetectX Cat # K019-H1).

[1] = Plasma MEDICA16αα exposure in STZ diabetic rats (LC/MS); assay type: in vivo; conditions: Sprague-Dawley, rat, po, 15 mg/kg, oral 15 mg/kg b.i.d, data not shown
Experimental: Plasma aliquots of 100 μl were vortex-mixed with 50 μl of formic acid:methanol (1:1 v/v) solution containing an internal standard, extracted into n-hexane, centrifuged, and the hexane layer was evaporated to dryness. The residue was reconstituted in the mobile phase and injected into the LC/MS system [Waters Micromass ZQ mass spectrometer (Waters Co.)]. LC/MS conditions were as follows:)(Bridge MS; RP8 column, 3.5 μm, 2.1×100 mm column (Waters Co.); column temperature was 35° C.; isocratic mobile phase, methanol:water (82:18 v/v) containing 0.1% formic acid, at a flow rate of 0.2 ml/min; detector tuned to 500 L/hr nitrogen flow; source temperature; 400° C.; cone voltage 30V; ionization mode ESI+; 365 and 393 m/z for MEDICA16αα and the internal standard, respectively. Calibration curves were linear and validated in the 100 ng/ml to 5000 ng/ml range, with accuracy of 7-9% relative error and precision of 8-10% relative standard deviation.

Soleus GLUT4 = experiment: Activation of Soleus GLUT4 in STZ diabetic rats; assay type: in vivo, rat
Experimental: as §1
Muscle tissue was fixed with 4% buffered formaldehyde for 4 hours. Paraffin sections (5 μm) were rehydrated and antigen retrieved in citrate buffer using a Biocare pressure cooker, followed by 5 minutes blocking in peroxidase and 10 minutes of protein block (Cas-Block). The sample was incubated with anti-GLUT4 antibody (AbCam ab65267), followed by polyclonal anti-mouse IgG. DAB substrate buffer was then added to achieve coloration. The specimens were subsequently dehydrated with ethanol, cleared with xylene and then mounted on glass cover slips. Digital images were obtained using Nikon Eclipse TE-2000E microscope equipped with Olympus DP70 camera. Image analysis was carried out using ImageJ software. […]
as §2

NOD mice [2] = experiment: IPGTT in pre-diabetic NOD mice; assay type: in vivo, mouse; conditions: 14-week and 24-week old NOD mice
Experimental: Overnight fasted NOD mice were injected i.p (2 gr/kg bw) with standard 20% dextrose solution. Tail vein blood was sampled on 0, 15, 30, 60, 90 and 120 minutes. Blood glucose was measured by glucometer. Plasma insulin prior to and 30 min following glucose injection was measured using Ultrasensitive Mouse Insulin ELISA kit (Crystal Chem).

NOD mice [3] = experiment: Islet insulitis scoring in NOD mice; assay type: in vivo, mouse; conditions: 14-week old pre-diabetic NOD mice
Excerpt: Head of pancreas of NOD mice was sampled, fixed in 4% buffered formalin, embedded in paraffin, and […] sections were stained with hematoxylin/eosin. Insulitis scores 0 to 4 were verified by the percentage of intra-islet mononuclear granulation (“0”, no intra-islet mononuclear cell infiltration; “1”, <25% of islet being infiltrated with mononuclear cell granulation; “2”, 25%-50%; “3”, 50-75%; “4”, >75%), in 30 to 40 islets per pancreas.

concentration at 10 days ([1]; read-out: plasma MEDICA16αα exposure, non-responsive rats): 26 ± 8.7 ng/mL
concentration at 10 days ([1]; read-out: plasma MEDICA16αα exposure, responsive rats): 22.5 ± 4.4 ng/mL
SMILES: CC(C)(CCCCCCCCCCCCC(C)(C)C(=O)O)C(=O)O [MEDICA16αα, 2,2,15,15-tetramethylhexadecane-1,16-dioic acid]
hepatic cAMP levels (hepatic gluconeogenesis): suppressing hepatic cAMP levels
hepatic phospho-ACC(Ser79) (AMPK activation) (hepatic gluconeogenesis): phosphorylation of its downstream ACC(Ser79) substrate
soleus AKT (phospho-Akt(Ser473)) (Soleus GLUT4): activated
soleus AMPK (phospho-ACC(Ser79)) (Soleus GLUT4): activated
soleus phospho-AS160(Thr642) (Soleus GLUT4): increase in phosphorylated AS160(Thr642)
pre-diabetic IPGTT profile (NOD mice [2]): normalizing
glucose-stimulated plasma insulin (NOD mice [2]; first 30 min of IPGTT): remained unaffected
islet insulitis rankings versus non-treated (NOD mice [3]): essentially similar
